From US20080113907A1, “Uses Of Galectin-2” (Charite-Universitat-Smedizin Berlin, priority 2004, published 2008)
Where a SMILES comes first, the peptide text is derived from it. The star is where a group is joined. Cbz = O=C(OCc1ccccc1)*; CH2F = FC*

Legend:
[1] = system: dextran sodium sulfate induced colitis; assay: Prevention of DSS induced acute colitis, disease activity index (DAI); type: in vivo, Balb/c mice; settings: 2 mg/kg i.p.; 10 days after induction; control 6.5 ± 0.3
Experimental: Colitis was induced in 8- to 10-week-old, female, Balb/c mice (Jackson Laboratories, Bar Harbor, Me.) by adding 5% DSS (Sigma Chemical Co., St. Louis, Mo.) (Dextran Sodiumsulfate (DSS) to their drinking water and allowing them to drink ad libitum. Groups of mice were treated either with 1 mg/kg BW (body weight) galectin-2 intraperitoneally or PBS 2 h before DSS administration. Mice were weighed and inspected for diarrhea and rectal bleeding. Seven days after induction of colitis by DSS, mice were killed, their entire colon was resected, and its length was measured and weighed. The disease activity index (DAI; i.e., the combined score of weight loss and bleeding) was determined according to a standard scoring system.
The disease activity index: Loss in bodyweight: 0=no loss; 1=5% to 10%; 2=10% to 15%; 3=15% to 20%; 4 ? 20%.
Hemoccult: 0=no blood; 2=positive; 4=gross blood.
In this experiment the DAI ranges from 0 to 8. The higher the DAI score the more severely the animal had been affected by colitis.
Colitis was induced in 8- to 10-week-old, female, Balb/c mice (Jackson Laboratories, Bar Harbor, Me.) by adding 5% DSS (Sigma Chemical Co., St. Louis, Mo.) (Dextran Sodiumsulfate (DSS) to their drinking water and allowing them to drink ad libitum. Groups of respectively 10 mice were treated either with Galectin-2 subcutaneously (s.c.) or intraperitoneally (i.p.) 2 h before DSS administration. In one trial with 10 mice the doses of Galectin-2 was doubled (administered i.p.) and compared to the treatment of 10 mice with Tacrolimus (FK506) (administered i.p.) in equal concentrations. In parallel a group of 10 mice was treated with 0.9% NaCl instead of Galectin-2 as control. Mice were weighed and inspected for diarrhea and rectal bleeding. 10 days after induction of colitis by DSS, mice were killed, their entire colon was resected, and its length was measured and weighed. The disease activity index (DAI; i.e., the combined score of weight loss and bleeding) was determined according to a standard scoring system.
The disease activity index: Loss in body weight: 0=no loss; 1=5% to 10%; 2=10% to 15%; 3=15% to 20%; 4 ? 20%.

PBT [2] = assay: Extent of apoptosis and necrosis (annexin-V, PI, DAPI staining); type: cell-based, human; settings: for effect on galectin-2 induced apoptosis: 50 mM; for effect on galectin-1 induced cell death / effect on galectin-2 induced T cell apoptosis / effect on galectin-7 induced cell death: caspase inhibitor 50 μM
Experimental: Apoptosis was determined by monitoring fragmentation of nuclear DNA and access of annexin V to c ell surface phosphatidylserine (PS). To detect fragmentation of nuclear DNA, T cells were cultured in the presence and absence of the respective galectins, with or without blocking antibodies or further activation for 48 h. Thereafter, cells were fixed in 0.2 ml of 37% formaldehyde for 10 min at room temperature. The cells were then treated with 1 ml PBS containing 0.2% Nonidet P-40 (Sigma-Aldrich) for 2 min at room temperature and then rinsed once in PBS. The apoptotic cells were detected by staining of nuclear DNA with 4,6-diamino-2-phenylindole (DAPI) (Calbiochem). DAPI was added at a concentration of 0.2 ng/ml of PBS and cells were incubated at room temperature for 20 min in this solution. Cells were rinsed twice in PBS and the coverslips were maintained cell side down on a microscope slide and analyzed using a Zeiss Axiovert 135M microscope (Carl Zeiss, Oberkochen, Germany). To detect early phases of apoptosis, access to PS was measured. Cells were cultured as described, harvested at the respective time points, stained with FITC-labeled annexin-V and PI and analyzed by flow cytometry using the CellQuest software program (BD Pharmingen). A minimum of 15,000 cells was monitored in each case.

T cells = assay: Binding of biotinylated Gal-2 to T lymphocytes (flow cytometry); parameters: species or system human; settings: 50 mM
Experimental: To measure Gal-2 binding to T lymphocytes, aliquots of cell suspensions were kept as controls or stimulated for 1, 6, 12, 24, 48, and 72 h with anti-CD3 mAb or PMA and PHA and incubated in the presence of 5 μg/ml biotin-labeled Gal-2. Cells were then harvested, washed and stained with anti-CD3-FITC mAb and APC-labeled streptavidin (Biosource) followed by flow cytofluorometric analysis. Cells cultured in the absence of biotin-labeled Gal-2 and stained with FITC-labeled mouse IgG (BD Pharmingen) or APC-labeled streptavidin served as isotype controls. Each analysis was performed on at least 20,000 events.

PBT [3] = assay: Analysis of T cell cycling (DNA content, cyclin B1, cell cycle regulators); type: cell-based, human; settings: anti-CD3 activated PBT; dropped from 8% (galectin-1) and 7% (galectin-7)
Experimental: For immunoblotting cells were washed in PBS, and lysed in cell lysis buffer (1% Triton-X, 0.5% NP-40, 0.1% SDS, 0.5% sodium deoxycholate, 5 mM EDTA, 50 mM and 50 mM protease- and phosphatase-inhibitor cocktail 2, 1 mM PMSF, 100 μg/ml trypsin-chymotrypsin inhibitor, 100 μg/ml chymostatin in PBS). The concentration of proteins in each lysate was measured using the Bio-Rad protein assay (Bio-Rad Laboratories, Hercules, Calif.). Equivalent amounts of protein (10 μg) were fractionated on a 10-20% Tris-glycine gel and electrotransferred to a nitrocellulose membrane (Novex, San Diego, Calif.). Membranes were blocked with 5% milk in 0.1% Tween 20-PBS (Fisher Scientific, Hanover Park, Ill.), followed by incubation for 60 m in at room temperature with the indicated primary antibody. The membranes were washed six times with 0.1% Tween 20-PBS and then incubated for 1 h with the appropriate horseradish peroxidase-conjugated secondary antibody (Santa Cruz Biotechnology), washed, and incubated with the chemiluminescent substrate (Perkin-Elmer, Carlsbad, Calif.) for 5 minutes. The membranes were then exposed to film (Amersham, Arlington Heights, Ill.).
Flow cytometry was performed after staining for DNA content, and cyclin B1, essentially as previously described (21). Briefly, cells were washed twice with PBS, adjusted to 1×10^6 cells/sample and fixed in 90% Methanol at −20° C. After fixation, cells were washed twice with PBS, incubated for 45 min at 4° C. with a cyclin B1-FITC conjugated monoclonal antibody. After the final wash, cells were resupended in PBS and 5 μl of RNase (0.6 μg/ml, 30-60 Kunitz Units, Sigma), incubated at 37° C. for 15 min and the chilled on ice. One hundred and twenty five microliters of PI (200 μg/ml) were added prior to analysis by flow cytometry. Each analysis was performed on at least 25.000 events.

T cells (PBT, LPT) = assay: Adhesion assay to collagen type I and fibronectin; type: cell-based, human; settings: PBT
Experimental: 96 well flat-bottom plates were precoated overnight at 4° C. with 12 μg/well fibronectin (Chemicon) in DPBS, 40 μg/well collagen type I (Sigma-Aldrich) in 0.1 M acetic acid, or 3% BSA (Sigma-Aldrich) in DPBS as a control and then washed three times with DPBS. Freshly isolated T cells were fluorescently-labelled with 5 μM calcein-AM (Molecular Probes, Eugene, Oreg.) for 30 min at 37° C. in 5% CO2 at 5×10^6 cells/ml in RPMI. The cells were then washed three times with RPMI containing 5% FCS. Calcein-labelled T cells were resuspended in RPMI and 5×10^5 T cells/well were added to 96-well plates containing purified ECM components or BSA for the indicated times. Saturating concentrations of integrin-blocking mAbs (predetermined by flow cytometry) were preincubated with T cells for 30 min at 37° C. before adding T cells to the wells for the adhesion assay. Nonadherent cells were removed by a standardized washing technique that was developed to minimize background binding, which includes both an orbital and a rocking motion repeated three times with RPMI. Adhesion was quantified with a multiwell fluorescent spectrophotometer (Tecan, Groedig, Austria). For each experimental group the results were expressed as the mean percentage±SD of bound T cells from triplicate wells.

Row | Compound | effect on galectin-1 induced cell death (PBT [2]) | effect on galectin-2 induced T cell apoptosis (PBT [2]) | effect on galectin-7 induced cell death (PBT [2]) | also measured
1 | C=CC[C@@H]1/C=C(\C)C[C@H](C)C[C@H](OC)[C@H]2O[C@@](O)(C(=O)C(=O)N3CCCC[C@H]3C(=O)O[C@H](/C(C)=C/[C@@H]3CC[C@@H](O)[C@H](OC)C3)[C@H](C)[C@@H](O)CC1=O)[C@H](C)C[C@@H]2OC [Tacrolimus, reference compound] |  |  |  | DAI (disease activity index) [1]: 2.4 ± 0.5,; apoptosis and necrosis of stimulated and unstimulated T cells (PBT [2]; 0, 50, 100 μg/ml, 24 h, with or without anti-CD3): makes no distinction between stimulated and unstimulated T-cells and mainly induces necrosis
2 | O=P1(N(CCCl)CCCl)NCCCO1 (stereo not drawn) [cyclophosphamide] |  |  |  | effect on galectin-2 induced T cell death (PBT [2]; 0, 10, 1000 nM, data not shown): failed to modulate galectin-2 induced T cell death
3 | OC[C@H]1O[C@@H](O[C@H]2[C@H](O)[C@@H](O)C(O)O[C@@H]2CO)[C@H](O)[C@@H](O)[C@H]1O (stereo partly drawn) [lactose, reference compound] |  |  |  | reduction of Gal-2 binding to T cells (T cells; unstimulated T cells): more than 70%; effect on galectin-2 induced apoptosis (PBT [2]): largely inhibited
4 | OC[C@H]1O[C@@](CO)(O[C@H]2O[C@H](CO)[C@@H](O)[C@H](O)[C@H]2O)[C@@H](O)[C@@H]1O [sucrose, reference compound] |  |  |  | effect on Gal-2 staining intensity of T cells (T cells; not shown): failed to affect the staining intensity; effect on galectin-2 induced apoptosis (PBT [2]): not
5 | COC(=O)CC[C@H](NC(=O)[C@H](CC(=O)OC)NC(=O)OCc1ccccc1)C(=O)N[C@H](C(=O)N[C@@H](CC(=O)OC)C(=O)CF)C(C)C [zDEVD, Z-Asp-Glu-Val-Asp(OMe)-fluoromethylketone] | impair | significantly inhibited | inhibited | 
6 | COC(=O)CC[C@H](NC(=O)[C@H](CC(C)C)NC(=O)OCc1ccccc1)C(=O)N[C@@H](Cc1cnc[nH]1)C(=O)N[C@@H](CC(=O)OC)C(=O)CF [zLEHD, Z-Leu-Glu(Ome)-His-Asp-(Ome)-Ch2F] (Cbz-LE(OMe)HD(OMe)-CH2F) | blocked | significantly inhibited | not | 
7 | COC(=O)C[C@H](NC(=O)[C@H](C)NC(=O)[C@@H](NC(=O)OCc1ccccc1)C(C)C)C(=O)CF [zVAD, Z-Val-Ala-Asp(OMe)-fluoromethylketone] (Cbz-Val-Ala-Asp(OMe)-CH2F) | impair | significantly inhibited | inhibited | 
8 | COC(=O)C[C@H](NC(=O)[C@H](C)NC(=O)[C@@H](NC(=O)[C@H](Cc1ccc(O)cc1)NC(=O)OCc1ccccc1)C(C)C)C(=O)CF [zYVAD, Z-Tyr-Val-Ala-Asp(Ome)-Ch2F] |  | had no effect | blocked | 
9 | Z-Ile-Glu-Thr-Asp(OMe)-fluoromethylketone [zIETD] | blocked | had no effect | inhibited | 
10 | galectin-7: another homodimeric proto-type galectin used for comparison |  |  |  | cyclin B1 expression (PBT [3]): 1%; effect on PBT adhesion to collagen or fibronectin (T cells (PBT, LPT)): failed to significantly alter PBT adhesion to collagen or fibronectin; PBT apoptosis relative to galectin-2 (PBT [2]; stimulated T cells): induced PBT apoptosis comparable to galectin-2
